From ChEMBL document CHEMBL2086262, “Ligand-based designing, in silico screening, and biological evaluation of new potent fructose-1,6-bisphosphatase (FBPase) inhibitors” (Eur J Med Chem, 2012)
pIC50: −log10 of the molar value.

assay: Inhibition of human recombinant FBPase using fructose-1,6-biphosphate as substrate incubated for 3 mins prior to substrate addition by spectrophotometric analysis

SMILES	pIC50
COCCOc1cc2ncnc(Nc3cccc(-c4csc(C)n4)c3)c2cc1OC	< 5.00
COc1cc2c(Nc3cccc(-c4csc(C)n4)c3)ncnc2cc1OC1CCCC1	< 5.00
COCCOc1cc2c(Nc3cccc(Br)c3)ncnc2cc1OC	5.26
CCOc1cc2nc(Cl)nc(Nc3cccc(-c4csc(C)n4)c3)c2cc1OCC	5.59
CCOc1cc2ncnc(Nc3cccc(-c4nccs4)c3)c2cc1OCC	6.42
CCOc1cc2ncnc(Nc3cccc(-c4csc(Cc5ccccc5)n4)c3)c2cc1OCC	< 5.00
CCC(C)Oc1cc2ncnc(Nc3cccc(-c4csc(C)n4)c3)c2cc1OC (configuration not stated)	< 5.00
CCOc1cc2ncnc(Nc3cccc(-c4nc[nH]n4)c3)c2cc1OCC	6.19
CCOc1cc2ncnc(Nc3ccc(F)c(-c4csc(C)n4)c3)c2cc1OCC	6.21
CCCc1nc(-c2cccc(Nc3ncnc4cc(OCC)c(OCC)cc34)c2)cs1	< 5.00
CCOc1cc2ncnc(Nc3cccc(C(=O)CBr)c3)c2cc1OCC	< 5.00
CCOc1cc2ncnc(Nc3cc(-c4csc(C)n4)ccc3Cl)c2cc1OCC	5.77
CCOc1cc2ncnc(Nc3cccc(-c4csc(C(N)=O)n4)c3)c2cc1OCC	6.03
CCOc1cc2ncnc(Nc3cccc(Br)c3)c2cc1OCC	5.77
CCOc1cc2nc(-n3ccnc3)nc(Nc3cccc(-c4csc(C)n4)c3)c2cc1OCC	6.11
CCOc1cc2ncnc(Nc3cccc(-c4csc(-c5ccccc5)n4)c3)c2cc1OCC	< 5.00
O=C(O)Cc1c(C(=O)O)[nH]c2cc(Cl)cc(Cl)c12	< 5.00
CCOc1cc2ncnc(Nc3ccccc3)c2cc1OCC	< 5.00
CCCOc1cc2ncnc(Nc3cccc(-c4csc(C)n4)c3)c2cc1OCC	6.00
CCOc1cc2ncnc(Nc3cccc(-c4cnc(C)o4)c3)c2cc1OCC	5.40
Cc1nc(-c2cccc(Nc3ncnc4cc5c(cc34)OCCO5)c2)cs1	< 5.00
NC(=O)c1[nH]c2cc(Cl)cc(Cl)c2c1CCC(=O)O	< 5.00
CCOc1cc2ncnc(Nc3ccc(F)c(-c4csc(C)n4)c3F)c2cc1OCC	< 5.00
CCOc1cc2ncnc(Nc3cccc(-c4cc[nH]n4)c3)c2cc1OCC	6.14
CCOc1cc2nc(C)nc(Nc3cccc(-c4csc(C)n4)c3)c2cc1OCC	6.00

SMILES	pIC50
CCOc1cc2nc(CN3CCCC3)nc(Nc3cccc(-c4csc(C)n4)c3)c2cc1OCC	5.21
O=C(CCc1c(C(=O)O)[nH]c2cc(Cl)cc(Cl)c12)NO	5.82
CCOc1cc2ncnc(Nc3cc(-c4csc(C)n4)ccc3CC)c2cc1OCC	5.68
CCOC(=O)c1[nH]c2cc(Cl)cc(Cl)c2c1CCC(=O)O	< 5.00
COCCOc1cc2ncnc(Nc3cccc(Br)c3)c2cc1OCCOC	< 5.00
O=C(O)c1[nH]c2cc(Cl)cc(Cl)c2c1CCCO	5.57
CCOc1cc2ncnc(Nc3cccc(-c4ccco4)c3)c2cc1OCC	5.85
CC(C)Oc1ccc2ncnc(Nc3cccc(Br)c3)c2c1	< 5.00
CCOc1cc2nc(CC(=O)O)nc(Nc3cccc(-c4csc(C)n4)c3)c2cc1OCC	6.02
CCOc1cc2nc(CCN)nc(Nc3cccc(-c4csc(C)n4)c3)c2cc1OCC	6.66
CCOc1cc2ncnc(Nc3cccc(Br)c3)c2cc1[N+](=O)[O-]	5.44
CCOc1cc2ncnc(Nc3cccc(-c4ccccc4C)c3)c2cc1OCC	< 5.00
CCOc1cc2ncnc(Nc3cccc(-c4csc(N)n4)c3)c2cc1OCC	5.46
CCCOc1cc2ncnc(Nc3cccc(-c4csc(C)n4)c3)c2cc1OC	≤ 5.25
CCOc1cc2ncnc(Nc3cccc(-c4cncnc4)c3)c2cc1OCC	5.92
Nc1ncnc2c1ncn2[C@@H]1O[C@H](COP(=O)(O)O)[C@@H](O)[C@H]1O [ADENOSINE PHOSPHATE]	4.91
CCCCOc1ccc2ncnc(Nc3cccc(Br)c3)c2c1	< 5.00
COc1cc2nc(C)nc(Nc3cccc(Br)c3)c2cc1OC	5.35
CCOc1cc2ncnc(Nc3cccc(-c4csc(OC)n4)c3)c2cc1OCC	6.11
CCOc1cc2ncnc(Nc3cccc(-c4csc(C)n4)c3)c2cc1OC	5.47
CCOc1cc2ncnc(Nc3cc(-c4csc(C)n4)ccc3C)c2cc1OCC	5.74
CCOc1cc2ncnc(Nc3cccc(-c4csc(C5CC5)n4)c3)c2cc1OCC	6.08
Nc1cc2c(Nc3cccc(Br)c3)ncnc2cc1Cl	< 5.00
O=C(O)CCCc1c(C(=O)O)[nH]c2cc(Cl)cc(Cl)c12	6.00
CCOc1cc2nc(CC(C)C)nc(Nc3cccc(Br)c3)c2cc1OCC	< 5.00

The next lines start with the values.

pIC50	SMILES
< 5.00	COc1cc2ncnc(Nc3cccc(Br)c3)c2cc1[N+](=O)[O-]
< 5.00	O=[N+]([O-])c1cc2c(Nc3cccc(Br)c3)ncnc2cc1Cl
< 5.00	CCOc1cc2ncnc(Nc3cc(-c4csc(C)n4)ccc3Br)c2cc1OCC
< 5.00	CCOc1cc2ncnc(Nc3ccc(Cl)c(C)c3)c2cc1OCC
6.32	CCOc1cc2ncnc(Nc3cc(-c4csc(C)n4)ccc3F)c2cc1OCC
5.46	COc1cc(-c2ccc(OC)nc2)c2oc(NS(=O)(=O)c3cc(Cl)ccc3Cl)nc2c1
< 5.00	CCOc1cc2ncnc(Nc3cccc(-c4cccc(C)c4)c3)c2cc1OCC
5.62	C#Cc1cccc(Nc2ncnc3cc(OCC)c(OCC)cc23)c1
< 5.00	CCCOc1cc2c(Nc3cccc(-c4csc(C)n4)c3)ncnc2cc1OC
< 5.00	CCOc1cc2nc(Cc3ccccc3)nc(Nc3cccc(-c4csc(C)n4)c3)c2cc1OCC
5.10	CCOc1cc2ncnc(Nc3cccc(-c4csc(N(C)C)n4)c3)c2cc1OCC
5.64	COc1cc2c(Nc3cccc(-c4csc(C)n4)c3)ncnc2cc1OC(C)C
≤ 6.19	CCOc1cc2ncnc(Nc3cccc(-c4csc(C)n4)c3)c2cc1OCC
5.70	CCOc1cc2nc(CN(C)C)nc(Nc3cccc(-c4csc(C)n4)c3)c2cc1OCC
< 5.00	CCOc1cc2nc(CN(CC)CC)nc(Nc3cccc(Br)c3)c2cc1OCC
5.85	CCOc1cc2ncnc(Nc3cccc(-c4cccnc4)c3)c2cc1OCC
< 5.00	CCOc1cc2ncnc(Nc3cc(-c4csc(C)n4)cc(C(F)(F)F)c3)c2cc1OCC
< 5.00	CCOc1cc2ncnc(Nc3cccc(C#N)c3)c2cc1OCC
5.54	COCCOc1ccc2ncnc(Nc3cccc(Br)c3)c2c1
5.89	COc1cc2c(Nc3cccc(-c4csc(C)n4)c3)ncnc2cc1OC(C)(C)C
5.22	CCNCc1nc(Nc2cccc(-c3csc(C)n3)c2)c2cc(OCC)c(OCC)cc2n1

pIC50	SMILES
5.92	CCOc1cc2c(Nc3cccc(-c4csc(C)n4)c3)ncnc2cc1OC
< 5.00	CCOc1cc2ncnc(Nc3cccc(-c4ccccc4)c3)c2cc1OCC
6.05	C#Cc1cccc(Nc2ncnc3cc(OC)c(OC)cc23)c1
< 5.00	COCCOc1cc2c(Nc3cccc(-c4csc(C)n4)c3)ncnc2cc1OC
5.36	COc1cc2ncnc(Nc3cccc(-c4csc(C)n4)c3)c2cc1OC
5.85	CCCc1nc(Nc2cccc(-c3csc(C)n3)c2)c2cc(OCC)c(OCC)cc2n1
6.00	CCOc1cc2nc(CCCl)nc(Nc3cccc(-c4csc(C)n4)c3)c2cc1OCC
< 5.00	CCOc1cc2ncnc(Nc3ccc(Cl)c(Cl)c3)c2cc1OCC
5.82	CCOc1cc2nc(CC)nc(Nc3cccc(-c4csc(C)n4)c3)c2cc1OCC
6.41	CCOc1cc2ncnc(Nc3cccc(-c4ccccn4)c3)c2cc1OCC
< 5.00	CCOc1cc2ncnc(Nc3cc(-c4csc(C)n4)c(F)cc3F)c2cc1OCC
5.85	CCOc1cc2nc(COC)nc(Nc3cccc(-c4csc(C)n4)c3)c2cc1OCC
≤ 5.60	O=C(O)CCc1c(C(=O)O)[nH]c2cc(Cl)cc(Cl)c12
< 5.00	CCOc1cc2ncnc(Nc3cccc(-c4ccc(C)cc4)c3)c2cc1OCC
< 5.00	CCOc1cc2nc(CS(C)(=O)=O)nc(Nc3cccc(Br)c3)c2cc1OCC
6.24	COc1cc(-c2cccc(N)c2)c2oc(NS(=O)(=O)c3cc(Cl)ccc3Cl)nc2c1
< 5.00	Cc1nc(-c2cccc(Nc3ncnc4cc5ccccc5cc34)c2)cs1
6.30	CCOc1cc2ncnc(Nc3cccc(-c4coc(C)n4)c3)c2cc1OCC
< 5.00	O=C(O)CCc1c(CO)[nH]c2cc(Cl)cc(Cl)c12
5.44	CCOc1cc2ncnc(Nc3cccc(-c4cocn4)c3)c2cc1OCC
6.41	CCOc1cc2ncnc(Nc3cccc(-c4cscn4)c3)c2cc1OCC

pIC50	SMILES
5.66	NC(=O)CCc1c(C(=O)O)[nH]c2cc(Cl)cc(Cl)c12
6.10	CCOc1cc2ncnc(Nc3cccc(-c4csc(NC)n4)c3)c2cc1OCC
5.30	CCOc1cc2nc(C(C)C)nc(Nc3cccc(-c4csc(C)n4)c3)c2cc1OCC
5.14	CCOc1cc2ncnc(Nc3cccc(-c4csc(COC)n4)c3)c2cc1OCC
< 5.00	CCOc1cc2nc(C(F)(F)F)nc(Nc3cccc(-c4csc(C)n4)c3)c2cc1OCC
< 5.00	O=C(O)c1ccc2c(Nc3cccc(Br)c3)ncnc2c1
< 5.00	O=C(O)CCc1c(C(=O)NO)[nH]c2cc(Cl)cc(Cl)c12
5.28	CCOc1cc2ncnc(Nc3ccc(Cl)c(-c4csc(C)n4)c3)c2cc1OCC
< 5.00	COc1cc2ncnc(Nc3cccc(-c4csc(C)n4)c3)c2cc1OC(C)C
< 5.00	CCOc1cc2nc(Cc3ccccc3)nc(Nc3cccc(Br)c3)c2cc1OCC
5.15	COC(=O)CCc1c(C(=O)O)[nH]c2cc(Cl)cc(Cl)c12
< 5.00	CCOc1cc2nc(CCl)nc(Nc3cccc(Br)c3)c2cc1OCC
5.35	CCOc1cc2ncnc(Nc3cccc(-c4csc(NN)n4)c3)c2cc1OCC
5.82	CCOc1cc2nc(CN)nc(Nc3cccc(-c4csc(C)n4)c3)c2cc1OCC
6.28	CCOc1cc2ncnc(Nc3ccc(F)c(Cl)c3)c2cc1OCC
< 5.00	CCN(CC)c1nc(Nc2cccc(Br)c2)c2cc(OC)c(OC)cc2n1
5.21	CCOc1nc(-c2cccc(Nc3ncnc4cc(OCC)c(OCC)cc34)c2)cs1
6.19	CCOc1cc2ncnc(Nc3cccc(-c4nc(C)cs4)c3)c2cc1OCC
5.04	CCOc1cc2ncnc(Nc3cccc(F)c3)c2cc1OCC
< 5.00	CCOc1cc2ncnc(Nc3cccc(-c4csc(C(=O)O)n4)c3)c2cc1OCC
